Results reported in patent US4098706A, “Lubricating agents for thermoplastic materials and process for preparing the same” (Sapchim-Fournier-Cimag, priority 1975, dated 1978).
Where two headings read alike, the source gives them in different places.

Tests used:
[1] = Extractibility of the lubricating agents from bottles by solvents simulating food and drink, 49° C; assay type: physicochemical
Protocol: The lubricating agents according to the invention may be used to lubricate polymers which are intended for the manufacture of packaging and containers for food and drink and its was therefore necessary, in spite of their low toxicity, to determine their extractibility by various solvents simulating food and drink, namely water, ethanol-water 50/50, an aqueous solution of acetic acid (3%) and heptane.
This study was carried out in accordance with the requirements of the Food and Drug Administration (U.S.A.).
The extractions were performed in semi-rigid bottles, prepared with the resins given hereabove.
The ratio of the volume of solvent to the surface of plastic material exposed to extraction was about […], taking into account the geometric characteristics of the bottles.
Heating--: A thermostated oven for the non-inflammable solvents (water and acetic acid) A thermostated water-bath for the inflammable solvents (alcohol and heptane)
This was, in each case, intentionally longer than that which would have given stable maximum values.
The following periods of duration were in fact, observed:
Acetic acid (3%) : 15 days
Aqueous ethanol: 3 to 4 days
The quantity of lubricating agent extracted was determined by thin layer chromatography, by comparison with a standard scale.
A blank trial was carried out with control bottles containing no lubricating agent and a purely negative result was obtained.
The amounts of lubricating agent determined are expressed in μg/ml of extraction solvent or, which is the same, per cm^2 of surface submitted to extraction.

[2] = Tendency for bubbles to appear in the polyvinyl chlorides containing the lubricating agents; assay type: physicochemical
From the text: It is known that a release of gaz during preparation of the resin and particularly at the moment of extrusion or blowing is a grave disadvantage when manufacturing objects such as bottles because it may lead to the formation of visible bubbles in the plastic.

[3] = Formula 915, acetic acid (3%), 15 days
[4] = Formula 915, aqueous ethanol, 3 to 4 days
[5] = Formula 913, acetic acid (3%), 15 days
[6] = Formula 913, aqueous ethanol, 3 to 4 days
[7] = Formula 914, acetic acid (3%), 15 days
[8] = Formula 914, aqueous ethanol, 3 to 4 days

Compound: CCCCCCCCCCCCCCCCCCCCCC(=O)OCC(C)OC(=O)CCCCCCCCCCCCCCCCCCCCC (stereo not shown) [Compound 1, 1,2-propanediol dibehenate]
- Amount of lubricating agent extracted [1, 3]: 0.13 µg/mL
- Amount of lubricating agent extracted [1, 4]: 0.13 µg/mL
- Amount of lubricating agent extracted ([1]; Formula 915, heptane, 3 days): 0.26 µg/mL
- Amount of lubricating agent extracted ([1]; Formula 915, water, 15 days): 0.13 µg/mL
- Observations (release of gas) [2]: No release
- Temperature at which bubbles appear [2]: 250 °C
- Toxic symptoms (mice; mouse, in vivo, po): none

Compound: CCCCCCCCCCCCCCCCCCCCCC(=O)OCCSCCOC(=O)CCCCCCCCCCCCCCCCCCCCC [Compound 2, Thiodiglycol dibehenate]
- Amount of lubricating agent extracted [1, 5]: 0.4 µg/mL
- Amount of lubricating agent extracted [1, 6]: 0.6 µg/mL
- Amount of lubricating agent extracted ([1]; Formula 913, heptane, 3 days): 1.3 µg/mL
- Amount of lubricating agent extracted ([1]; Formula 913, water, 15 days): 0.13 µg/mL
- Amount of lubricating agent extracted [1, 7]: 0.13 µg/mL
- Amount of lubricating agent extracted [1, 8]: 0.13 µg/mL
- Amount of lubricating agent extracted ([1]; Formula 914, heptane, 3 days): 0.8 µg/mL
- Amount of lubricating agent extracted ([1]; Formula 914, water, 15 days): 0.13 µg/mL
- Amount of lubricating agent extracted [1, 3]: 0.13 µg/mL
- Amount of lubricating agent extracted [1, 4]: 0.13 µg/mL
- Amount of lubricating agent extracted ([1]; Formula 915, heptane, 3 days): 0.6 µg/mL
- Amount of lubricating agent extracted ([1]; Formula 915, water, 15 days): 0.13 µg/mL
- Toxic symptoms (mice; oral, mice): none

Compound: CCCCCCCCCCCCCCCCCCCCCC(=O)OCCOCCOCCOC(=O)CCCCCCCCCCCCCCCCCCCCC [Compound 4, Triethyleneglycol dibehenate]
- Toxic symptoms (mice; mouse, in vivo, po): none

Compound: CCCCCCCCCCCCCCCCCCCCCC(=O)OCCCCOC(=O)CCCCCCCCCCCCCCCCCCCCC [Compound 7, 1,4-butanediol dibehenate]
- Amount of lubricating agent extracted [1, 7]: 0.13 µg/mL
- Amount of lubricating agent extracted [1, 8]: 0.13 µg/mL
- Amount of lubricating agent extracted ([1]; Formula 914, heptane, 3 days): 0.8 µg/mL
- Amount of lubricating agent extracted ([1]; Formula 914, water, 15 days): 0.13 µg/mL
- Toxic symptoms (mice; mouse, in vivo, po): none

Compound: CCCCCCCCCCCCCCCCCCCCCC(=O)OCC(COC(=O)CCCCCCCCCCCCCCCCCCCCC)OC(=O)CCCCCCCCCCCCCCCCCCCCC [Compound 8, Glyceryl tribehenate]
- Observations (release of gas) [2]: Slight release
- Temperature at which bubbles appear [2]: 230 °C
- Toxic symptoms (mice; mouse, in vivo, po): none

Compound: CCCCCCCCCCCCCCCCCCCCCC(=O)OCC(COC(=O)CCCCCCCCCCCCCCCCCCCCC)(COC(=O)CCCCCCCCCCCCCCCCCCCCC)COC(=O)CCCCCCCCCCCCCCCCCCCCC [Compound 9, Pentaerythrite tetrabehenate]
- Amount of lubricating agent extracted [1, 5]: 0.26 µg/mL
- Amount of lubricating agent extracted [1, 6]: 0.13 µg/mL
- Amount of lubricating agent extracted ([1]; Formula 913, heptane, 3 days): 0.26 µg/mL
- Amount of lubricating agent extracted ([1]; Formula 913, water, 15 days): 0.13 µg/mL
- Observations (release of gas) [2]: Slight release
- Temperature at which bubbles appear [2]: 195 °C
- Toxic symptoms (mice; mouse, in vivo, po): none

Compound: CCCCCCCCCCCCCCCCCCCCCC(=O)O [calcium behenate]
- Toxic symptoms (mice; mouse, in vivo, po): none
